According to ChEMBL document CHEMBL1147521 (Bioorg Med Chem Lett, 2004):

Assays:
[1] = molecular target: T1, Prostaglandin G/H synthase 1 (Ovis aries, UniProt P05979); test: In vitro inhibitory activity against prostaglandin G/H synthase 1 from ovine
T1 sequence (P05979 whole entry): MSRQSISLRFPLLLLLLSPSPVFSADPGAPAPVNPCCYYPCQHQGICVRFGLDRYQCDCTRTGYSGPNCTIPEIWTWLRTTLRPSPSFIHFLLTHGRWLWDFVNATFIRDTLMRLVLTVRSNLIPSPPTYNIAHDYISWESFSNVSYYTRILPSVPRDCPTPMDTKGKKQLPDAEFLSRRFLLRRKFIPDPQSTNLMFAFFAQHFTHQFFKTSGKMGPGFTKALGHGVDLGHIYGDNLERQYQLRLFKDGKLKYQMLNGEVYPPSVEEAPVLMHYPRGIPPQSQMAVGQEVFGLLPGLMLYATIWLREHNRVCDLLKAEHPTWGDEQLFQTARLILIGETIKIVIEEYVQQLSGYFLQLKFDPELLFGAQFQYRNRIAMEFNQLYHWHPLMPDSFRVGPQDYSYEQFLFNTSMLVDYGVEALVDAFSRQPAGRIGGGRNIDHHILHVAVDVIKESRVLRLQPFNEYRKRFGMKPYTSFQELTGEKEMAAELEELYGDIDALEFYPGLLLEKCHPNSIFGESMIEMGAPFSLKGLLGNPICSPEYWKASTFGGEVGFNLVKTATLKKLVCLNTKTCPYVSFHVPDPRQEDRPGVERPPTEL

[2] = molecular target: T2, Prostaglandin G/H synthase 2 (Ovis aries, UniProt P79208); test: In vitro inhibitory activity against prostaglandin G/H synthase 2 from ovine
T2 sequence (P79208 whole entry): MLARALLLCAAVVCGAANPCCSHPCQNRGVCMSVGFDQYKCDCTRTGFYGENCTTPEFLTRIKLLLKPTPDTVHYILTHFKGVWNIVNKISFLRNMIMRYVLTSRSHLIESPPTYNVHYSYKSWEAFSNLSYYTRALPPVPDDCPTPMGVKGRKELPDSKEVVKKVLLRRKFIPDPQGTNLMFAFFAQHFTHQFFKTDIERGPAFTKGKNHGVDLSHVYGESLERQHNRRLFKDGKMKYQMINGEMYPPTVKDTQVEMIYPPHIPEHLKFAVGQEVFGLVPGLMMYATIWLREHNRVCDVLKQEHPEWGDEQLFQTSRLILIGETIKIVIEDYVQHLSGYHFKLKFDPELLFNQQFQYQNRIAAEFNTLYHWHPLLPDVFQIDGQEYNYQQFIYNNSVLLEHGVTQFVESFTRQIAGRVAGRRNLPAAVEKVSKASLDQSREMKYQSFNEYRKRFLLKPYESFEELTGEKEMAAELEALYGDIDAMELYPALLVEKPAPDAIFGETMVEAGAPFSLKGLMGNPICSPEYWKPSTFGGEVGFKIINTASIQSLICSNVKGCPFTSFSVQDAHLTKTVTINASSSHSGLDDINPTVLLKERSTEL

IC50 [1] [µM] | IC50 [2] [µM] | Structure (SMILES)
31.5 | 11 | CS(=O)(=O)c1ccc(C2=C(c3ccc(S(=O)(=O)N=[N+]=[N-])cc3)C(=O)OC2)cc1
> 100 | 0.05 | CC(=O)NS(=O)(=O)c1ccc(C2=C(c3ccc(S(C)(=O)=O)cc3)C(=O)OC2)cc1
> 100 | > 100 | CS(=O)(=O)c1ccc(C2=C(c3ccc(S(N)(=O)=O)cc3)C(=O)OC2)cc1
3.2 | 4.6 | CC(=O)NS(=O)(=O)c1ccc(C2=C(c3ccc(S(C)(=O)=O)cc3)COC2=O)cc1
> 100 | 3.1 | CS(=O)(=O)c1ccc(C2=C(c3ccc(S(=O)(=O)N=[N+]=[N-])cc3)COC2=O)cc1
> 100 | > 100 | CS(=O)(=O)c1ccc(C2=C(c3ccc(S(N)(=O)=O)cc3)COC2=O)cc1

Structure (SMILES) | IC50 [1] [µM] | IC50 [2] [µM]
CS(=O)(=O)c1ccc(C2=C(c3ccccc3)C(=O)OC2)cc1 [ROFECOXIB] |  | > 0.43
